Source: publication PMC11123991, “Novel 9-Methylanthracene Derivatives as p53 Activators for the Treatment of Glioblastoma Multiforme” (Molecules, 2024)
Each block holds one compound with its values, some of them ahead of it.

Experiments:
[1] = tested on: human glioblastoma cell line U87; assay: MTT antiproliferative assay in U87 cells; format: cell-based; details: for inhibition at 10 µM / IC50: 72 h, MTT; for inhibition at 10 µM: triplicates, read-out: U87 (% Inhib. @ 10 µM); for IC50: mean ± SD (n = 3)
Description: (§1) U87, Hela, MCF-7, and HHL-5 cells were provided by Chinese Academy of Medical Sciences (Beijing, China). The cancer cells were cultured in DMEM media containing 10% heat-inactivated fetal calf serum. All cells were incubated at 37 °C in a 5% CO2 humidified atmosphere and harvested in the exponential growth phase for assays.
(§2) Cells were seeded in a 96-well plate and treated with the test substance at the desired concentration for 72 h. In cytotoxicity experiments, cells were treated with 10 µM of the test compound or 1 µM XI-011 and doxorubicin as positive controls. DMSO (1%) was used as a negative control. In the IC50 analysis, doxorubicin, XI-011, 13d, 13e, 14a, 14b, and, 14n were applied to HHL-5 at 50, 25, 10, 5, 2.5, 1.25, 0.625, 0.3125, and 0.15625 µM and U87 cells at 10, 7.5, 5, […], 1.25, 0.625, 0.3125, and 0.15625 µM, whereas 30, 10, 3, 0.5, and 0.1 µM were applied to Hela and MCF-7 cells. Treated cells were incubated with an MTT solution for 2 h and then with DMSO to dissolve the crystals. Absorbance was determined at 570 nm using a microplate reader (BioTek, Seattle, DC, USA). IC50 values were calculated using the Hill model in GraphPad Prism 8.0.2 software.

[2] = tested on: HHL-5 human normal cell line; assay: MTT cytotoxicity assay in normal HHL-5 cells; format: cell-based; details: for IC50: Homo sapiens, HHL-5, normal cell line, 72 h, MTT, mean ± SD (n = 3)
Description: as §1, §2

[3] = tested on: human cervical cancer cell line HeLa; assay: MTT antiproliferative assay in HeLa cells; format: cell-based; details: Homo sapiens, 72 h, MTT, mean ± SD (n = 3)
Description: as §1, §2

[4] = tested on: human breast cancer cell line MCF-7; assay: MTT antiproliferative assay in MCF-7 cells; format: cell-based; details: MCF7, 72 h, mean ± SD (n = 3)
Description: as §1, §2

[5] = tested on: p53; assay: Western blot of p53 expression in U87 cells; format: cell-based, human; details: U87, 24 h, 0.5, 1 and 2 µM
Description: (§3) Protein levels in U87 cells treated with test compound 13e (0.5, 1, and 2 µM) for 24 h were measured by Western blot analysis as described previously. Briefly, after 13e treatment, cells were lysed in RIPA buffer. Proteins were separated by 8% SDS-PAGE and transferred to a PVDF membrane (Millipore, Billerica, MA, USA). The membrane was incubated with an anti-MDM4 antibody (A300-287A, Bethyl Laboratories, Montgomery, TX, USA), anti-p53 antibody (sc-126, Santa Cruz Biotechnology, Inc., Dallas, TX, USA), or anti-GAPDH antibody (AG019, Beyotime, Shanghai, China) followed by an HRP-linked secondary antibody (A0216, Beyotime) for 2 h. ECL reagent was used for chemiluminescent development. Densitometric analysis of protein bands was performed using ImageJ V.1.8.0 software.

[6] = tested on: MDM4; assay: Western blot of MDM4 expression in U87 cells; format: cell-based, human; details: U87, 24 h, 0.5, 1 and 2 µM
Description: as §3

[7] = tested on: U87 cells; assay: Flow cytometric cell cycle analysis in U87 cells; format: cell-based, human; details: U87, 24 h, 0.5, 1 and 2 µM
Description: Cells were cultured for 24 h in a 6-well plate, and then the test compound (0.5, 1, and 2 µM) was added to the culture medium. After treatment for 24 h, the cells were harvested and fixed at 4 °C overnight in an ethanol solution (80%). The cells were washed with PBS and stained with a PI solution ([…] in PBS). After 30 min, the cells were subjected to flow cytometry (C6; BD, Franklin Lakes, NJ, USA). The recorded cell fluorescence was used to analyze the cell cycle distribution.

[8] = tested on: U87 cells; assay: Flow cytometric apoptosis analysis in U87 cells; format: cell-based, human; details: 24 h
Description: Reducing MDM4 expression restores the p53 function and increases apoptotic cells. The apoptotic effects of compound 13e were determined in U87 cells by flow cytometry. […] 13e induced 21% apoptosis at 1 µM, which was slightly lower than the 23% apoptosis induced by XI-011. At 2 µM 13e, apoptosis was up to 25.9%. […] The mechanism by which 13e induces apoptosis in U87 cells may be related to its ability to downregulate MDM4 expression and stabilize p53 protein.

Structure (SMILES): Cc1ccc(CSC(=N)N)c2ccccc12 [12a]
inhibition at 10 µM ([1]; Homo sapiens, U-87 MG): 15.2%

Structure (SMILES): N=C(N)SCc1cccc2ccccc12 [12b]
inhibition at 10 µM ([1]; Homo sapiens, U-87 MG): 9%

Structure (SMILES): Cc1ccc(CSC(=N)N)cc1 [12c]
inhibition at 10 µM ([1]; Homo sapiens, U-87 MG): 11.8%

Structure (SMILES): N=C(N)SCc1ccc([N+](=O)[O-])cc1 [12d]
inhibition at 10 µM ([1]; Homo sapiens, U-87 MG): 14.8%

Structure (SMILES): N=C(N)SCc1ccc2ccccc2c1 [12e]
inhibition at 10 µM ([1]; Homo sapiens, U-87 MG): 1.5%

Structure (SMILES): Cc1ccc(CSC(=N)NN)c2ccccc12 [12f]
inhibition at 10 µM ([1]; Homo sapiens, U-87 MG): 13.1%

Structure (SMILES): N=C(NN)SCc1cccc2ccccc12 [12g]
inhibition at 10 µM ([1]; Homo sapiens, U-87 MG): 14.5%

Structure (SMILES): CNC(=N)SCc1ccc(C)c2ccccc12 [12h]
inhibition at 10 µM ([1]; Homo sapiens, U-87 MG): 9.9%

Structure (SMILES): CC(=O)NC(=N)SCc1ccc(C)c2ccccc12 [12i]
inhibition at 10 µM ([1]; Homo sapiens, U-87 MG): 2.7%

Structure (SMILES): CC(=O)NC(=N)SCc1ccc(C)cc1 [12j]
inhibition at 10 µM ([1]; Homo sapiens, U-87 MG): 6.8%

Structure (SMILES): N=C(NN)SCc1ccc2ccccc2n1 [12k]
inhibition at 10 µM ([1]; Homo sapiens, U-87 MG): 10.7%

Structure (SMILES): CNC(=N)SCc1ccc2ccccc2n1 [12l]
inhibition at 10 µM ([1]; Homo sapiens, U-87 MG): 11.3%

Structure (SMILES): Cc1c2ccccc2c(CSC(=N)NN)c2ccccc12 [13a]
inhibition at 10 µM ([1]; Homo sapiens, U-87 MG): 57.9% | fold more potency than 12f ([1]; U87 inhibition rate at 10 µM): approximately 4 fold

Structure (SMILES): CC(=O)NC(=N)SCc1c2ccccc2c(C)c2ccccc12 [13b]
inhibition at 10 µM ([1]; Homo sapiens, U-87 MG): 19.3%

Structure (SMILES): Cc1c2ccccc2c(CSC(=N)NC(=N)N)c2ccccc12 [13c]
inhibition at 10 µM ([1]; Homo sapiens, U-87 MG): 35.4%

IC50 [3]: 5660 ± 290 nM | IC50 [1]: 1620 ± 20 nM | IC50 ([1]; Homo sapiens, U-87 MG): < 2000 nM | IC50 [4]: 4740 ± 200 nM
Structure (SMILES): CNC(=N)SCc1c2ccccc2c(C)c2ccccc12 [13d]
IC50 [2]: 850 ± 100 nM | inhibition at 10 µM ([1]; Homo sapiens, U-87 MG): 93.3%

IC50 [3]: 1630 ± 250 nM | IC50 [4]: 970 ± 110 nM
Structure (SMILES): Cc1c2ccccc2c(CSC(=N)N(C)N)c2ccccc12 [13e]
fold lesser toxicity to human normal HHL-5 cells than to U87 cells ([2]; HHL-5 IC50 versus U87 IC50): 2 fold | IC50 [2]: 1110 ± 80 nM | p53 protein expression [5]: significantly upregulated p53 protein expression | MDM4 expression [6]: dose-dependent suppression of MDM4 expression | inhibition at 10 µM ([1]; Homo sapiens, U-87 MG): 88.6% | cell cycle effect [7]: arrested U87 cells in G2/M phase | apoptosis ([8]; U87, 1 µM): 21% | apoptosis ([8]; U87, 2 µM): 25.9%

Structure (SMILES): CC(C)=NNC(=N)SCc1c2ccccc2c(C)c2ccccc12 [13f]
inhibition at 10 µM ([1]; Homo sapiens, U-87 MG): 65.1% | fold potency improvement in U87 cells compared with aryl-derived compounds ([1]; U87 inhibition rate at 10 µM): 3–4 fold

Structure (SMILES): Cc1c2ccccc2c(CSc2ncc[nH]2)c2ccccc12 [13g]
inhibition at 10 µM ([1]; Homo sapiens, U-87 MG): 41.2%

Structure (SMILES): Cc1c2ccccc2c(CSC2=NC(=O)CC(=O)N2)c2ccccc12 [13h]
inhibition at 10 µM ([1]; Homo sapiens, U-87 MG): 0.7%

Structure (SMILES): CCOC(=O)c1cnc(SCc2c3ccccc3c(C)c3ccccc23)[nH]1 [13i]
inhibition at 10 µM ([1]; Homo sapiens, U-87 MG): 31.2%

Structure (SMILES): Cc1c2ccccc2c(CSC(=N)Nc2ccccc2)c2ccccc12 [13j]
inhibition at 10 µM ([1]; Homo sapiens, U-87 MG): 13.3%

Structure (SMILES): Cc1c2ccccc2c(CS/C(=N\c2ccccc2)Nc2ccccc2)c2ccccc12 [13k]
inhibition at 10 µM ([1]; Homo sapiens, U-87 MG): 28.1%
